Test results reported in patent US20230106506A1, “NOVEL PqsR INVERSE AGONISTS” (Helmholtz-Zentrum Fur Infektionsforschung GmbH, priority 2020, published 2023).

How the values were obtained:
[1] = Metabolic stability in mouse liver microsomes (MLM); type: in vitro ADME; conditions: 1 μM compound, 0.5 mg/mL MLM, 1 mM NADPH, 37° C., read-out: half-life (t1/2) towards MLM
Protocol: For the evaluation of phase I metabolic stability, the compound (1 μM) was incubated with 0.5 mg/mL MLM (Corning) and 1 mM NADPH at 37° C. for 0, 5, 10, 15 and 30 min. The metabolic stability of Verapamil, Diphenhydramine and Benzydamine (1 μM each) were determined in parallel to confirm the enzymatic activity of the MLM. The incubation was stopped by addition of 2 volumes of acetonitrile containing internal standard (1 μM Leucine Enkephaline). Samples were centrifuged (15 min, 3,500 rpm). Concentration of the remaining test compound at the different time points was analyzed by HPLC-MS/MS and used to determine half-life (t1/2).

[2] = test system: P. aeruginosa pyocyanin production; test: Pyocyanin assay; type: cell-based, P. aeruginosa strain PA14; conditions: Pseudomonas aeruginosa, PA14, 16 h, read-out: IC50-value towards pyocyanin production
Protocol: Inhibition of P. aeruginosa pyocyanin production by compounds was determined photometrically as described before. In short, an overnight culture of PA14 in PPGAS medium was washed, diluted in medium to a start OD600 of 0.02, and incubated for 16 h (37° C., 200 rpm, relative humidity 75%) in the presence of test compounds. Then, cultures were extracted with chloroform and re-extracted with 0.2 M HCl. Protonated red colored pyocyanin was determined by measuring OD520 and normalizing to OD600.

[3] = Kinetic turbidimetric aqueous solubility; type: physicochemical; conditions: aqueous buffer, kinetic from dmso stock; PBS buffer, final DMSO 2%, absorbance 620 nm; read-out: Kinetic Turbidimetric Aqueous Solubility at room temperature for 5 min
Protocol: Kinetic Turbidimetric Aqueous Solubility at room temperature for 5 min. […] Data was analyzed by fitting a four parameter sigmoidal function to the measured and normalized absorbances and AUC calculation providing access to Log S (decadic logarithm of the solubility).

Row | SMILES | half-life at 1 µM [1] [h] | IC50 [2] [nM] | solubility at 5 min [3] [µM]
1 | CC(C)Oc1ccc(-c2ncc(CNc3cc(-c4cncs4)nc(C(F)(F)F)c3)cn2)cc1 [Compound 70, N-((2-(4-Isopropoxyphenyl)pyrimidin-5-yl)methyl)-2-(thiazol-5-yl)-6-(trifluoromethyl)pyridin-4-amine] | > 1.67 | 101 to 200 | 
2 | CC(C)Oc1ccc(-c2ncc(CNc3cc(-n4ccnc4)nc(C(F)(F)F)c3)cn2)cc1 [Compound 29, 2-(1H-Imidazol-1-yl)-N-((2-(4-isopropoxyphenyl)pyrimidin-5-yl)methyl)-6-(trifluoromethyl)pyridin-4-amine] | > 1.67 | 101 to 200 | 
3 | Fc1ccc(Oc2ccc(-c3ncc(CNc4cc(-c5cn[nH]c5)nc(C(F)(F)F)c4)cn3)cc2)cc1 [Compound 53, N-((2-(4-(4-Fluorophenoxy)phenyl)pyrimidin-5-yl)methyl)-2-(1H-pyrazol-4-yl)-6-(trifluoromethyl)pyridin-4-amine] | > 1.67 | 101 to 200 | 
4 | CC(C)Oc1ccc(-c2cnc(CNc3cc(-c4cn[nH]c4)nc(C(F)(F)F)c3)nc2)cc1 [Compound 40, N-((5-(4-Isopropoxyphenyl)pyrimidin-2-yl)methyl)-2-(1H-pyrazol-4-yl)-6-(trifluoromethyl)pyridin-4-amine] |  | 201 to 500 | > 10
5 | FC(F)(F)c1nc(SCc2nc3cc(Oc4ccccc4)ccc3[nH]2)cc(-n2ccnc2)n1 [Compound 63, 2-(((6-(1H-Imidazol-1-yl)-2-(trifluoromethyl)pyrimidin-4-yl)thio)methyl)-5-phenoxy-1H-benzo[d]imidazole] |  |  | > 10
6 | CC(C)Oc1ccc(-c2ncc(CNc3cc(-c4cc[nH]n4)nc(C(F)(F)F)c3)cn2)cc1Cl [Compound 32, N-((2-(3-Chloro-4-isopropoxyphenyl)pyrimidin-5-yl)methyl)-2-(1H-pyrazol-3-yl)-6-(trifluoromethyl)pyridin-4-amine] | 1.02 to 1.67 | 201 to 500 | 
7 | CC(C)Oc1ccc(-c2ccc(CNc3cc(-n4cncn4)nc(C(F)(F)F)c3)nc2)cc1Cl [Compound 26, N-((5-(3-Chloro-4-isopropoxyphenyl)pyridin-2-yl)methyl)-2-(1H-1,2,4-triazol-1-yl)-6-(trifluoromethyl)pyridin-4-amine] | > 1.67 | 201 to 500 | 
8 | Fc1cccc(Oc2ccc(-c3ncc(CNc4cc(-c5cn[nH]c5)nc(C(F)(F)F)c4)cn3)cc2)c1 [Compound 52, N-((2-(4-(3-Fluorophenoxy)phenyl)pyrimidin-5-yl)methyl)-2-(1H-pyrazol-4-yl)-6-(trifluoromethyl)pyridin-4-amine] | > 1.67 | 101 to 200 | 
9 | N#Cc1cc(-c2ncc(CNc3cc(-c4cn[nH]c4)nc(C(F)(F)F)c3)cn2)ccc1F [Compound 38, 5-(5-(((2-(1H-Pyrazol-4-yl)-6-(trifluoromethyl)pyridin-4-yl)amino)methyl)pyrimidin-2-yl)-2-fluorobenzonitrile] |  | 101 to 200 | > 25
10 | CC(C)Oc1ccc(-c2cnc(CNc3cc(-n4ccnc4)nc(C(F)(F)F)c3)nc2)cc1 [Compound 45, 2-(1H-Imidazol-1-yl)-N-((5-(4-isopropoxyphenyl)pyrimidin-2-yl)methyl)-6-(trifluoromethyl)pyridin-4-amine] | > 1.67 | 201 to 500 | 
11 | Cc1ccc(-c2ncc(CNc3cc(-c4cn[nH]c4)nc(C(F)(F)F)c3)cn2)cc1C#N [Compound 37, 5-(5-(((2-(1H-Pyrazol-4-yl)-6-(trifluoromethyl)pyridin-4-yl)amino)methyl)pyrimidin-2-yl)-2-methylbenzonitrile] |  | 101 to 200 | > 10
12 | CC(C)Oc1ccc(-c2ccc(CNc3cc(-n4cncn4)nc(C(F)(F)F)c3)nc2)cc1 [Compound 25, N-((5-(4-Isopropoxyphenyl)pyridin-2-yl)methyl)-2-(1H-1,2,4-triazol-1-yl)-6-(trifluoromethyl)pyridin-4-amine] | > 1.67 | 101 to 200 | 
13 | CC(C)Oc1ccc(-c2cnc(CNc3cc(-c4cnn(C)c4)nc(C(F)(F)F)c3)nc2)cc1 [Compound 44, N-((5-(4-Isopropoxyphenyl)pyrimidin-2-yl)methyl)-2-(1-methyl-1H-pyrazol-4-yl)-6-(trifluoromethyl)pyridin-4-amine] | > 1.67 | 201 to 500 | 
14 | N#Cc1cc(-c2ncc(CNc3cc(-c4cn[nH]c4)nc(C(F)(F)F)c3)cn2)ccc1Cl [Compound 50, 5-(5-(((2-(1H-Pyrazol-4-yl)-6-(trifluoromethyl)pyridin-4-yl)amino)methyl)pyrimidin-2-yl)-2-chlorobenzonitrile] |  | 101 to 200 | 
15 | CC(C)Oc1ccc(-c2cnc(CNc3cc(-n4ccnc4)nc(C(F)(F)F)c3)nc2)cc1Cl [Compound 46, N-((5-(3-Chloro-4-isopropoxyphenyl)pyrimidin-2-yl)methyl)-2-(1H-imidazol-1-yl)-6-(trifluoromethyl)pyridin-4-amine] | 1.02 to 1.67 | 201 to 500 | 
16 | FC(F)(F)c1cc(SCc2nc3cc(Oc4ccccc4)ccc3[nH]2)cc(-n2ccnc2)n1 [Compound 62, 2-(((2-(1H-Imidazol-1-yl)-6-(trifluoromethyl)pyridin-4-yl)thio)methyl)-5-phenoxy-1H-benzo[d]imidazole] |  | 201 to 500 | 
17 | N#Cc1cccc(-c2ncc(CNc3cc(-c4cn[nH]c4)nc(C(F)(F)F)c3)cn2)c1 [Compound 36, 3-(5-(((2-(1H-Pyrazol-4-yl)-6-(trifluoromethyl)pyridin-4-yl)amino)methyl)pyrimidin-2-yl)benzonitrile] |  | 201 to 500 | > 25
18 | FC(F)(F)c1cc(SCc2nc3cc(Oc4ccccc4)ccc3[nH]2)cc(-c2cn[nH]c2)n1 [Compound 64, 2-(((2-(1H-pyrazol-4-yl)-6-(trifluoromethyl)pyridin-4-yl)thio)methyl)-5-phenoxy-1H-benzo[d]imidazole] |  | 101 to 200 | > 10
19 | CC(C)Oc1ccc(-c2ccc(CNc3cc(-c4cn[nH]c4)nc(C(F)(F)F)c3)nn2)cc1 [Compound 22, N-((6-(4-Isopropoxyphenyl)pyridazin-3-yl)methyl)-2-(1H-pyrazol-4-yl)-6-(trifluoromethyl)pyridin-4-amine] |  | 201 to 500 | > 25
20 | CC(C)Oc1ccc(-c2cnc(CNc3cc(-n4cncn4)nc(C(F)(F)F)c3)nc2)cc1 [Compound 42, N-((5-(4-Isopropoxyphenyl)pyrimidin-2-yl)methyl)-2-(1H-1,2,4-triazol-1-yl)-6-(trifluoromethyl)pyridin-4-amine] | > 1.67 | 201 to 500 | 
21 | CC(C)Oc1ccc(-c2ncc(CNc3cc(-n4cncn4)nc(C(F)(F)F)c3)cn2)cc1 [Compound 59, N-((2-(4-Isopropoxyphenyl)pyrimidin-5-yl)methyl)-2-(1H-1,2,4-triazol-1-yl)-6-(trifluoromethyl)pyridin-4-amine] | > 1.67 | 101 to 200 | 
22 | CC(C)Oc1ccc(-n2cc(CNc3cc(-c4cn[nH]c4)nc(C(F)(F)F)c3)nn2)cc1 [Compound 05, N-((1-(4-Isopropoxyphenyl)-1H-1,2,3-triazol-4-yl)methyl)-2-(1H-pyrazol-4-yl)-6-(trifluoromethyl)pyridin-4-amine] |  |  | > 25
